Reference: ChEMBL document CHEMBL1158994, “Methylpendolmycin, an indolactam from a Nocardiopsis sp” (J Nat Prod, 1991)
≈ marks a conversion by molar mass, not a printed value.

Target: Protein kinase C (PKC)
Assay: Displacement of radiolabeled PDBU from PKC in rat forebrain
Assay type: tissue-based

| Compound | IC50 [µg/mL] | Ki [nM] |
| --- | --- | --- |
| C=CC(C)(C)c1ccc2c3c(c[nH]c13)C[C@@H](CO)NC(=O)[C@H]([C@@H](C)CC)N2C [METHYLPENDOLMYCIN] | 0.0135 (≈ 0.0352 µM) |  |
| CCCCCCCCCCCCCC(=O)O[C@@H]1[C@@H](C)[C@@]2(O)[C@@H](C=C(CO)C[C@]3(OC)C(=O)C(C)=C[C@@H]23)[C@@H]2C(C)(C)[C@]12OC(C)=O |  | 500 |
